Laboratory results taken from US20170157110A1, “METHODS FOR INDUCING INSULIN PRODUCTION AND USES THEREOF” (UNIVERSITE DE GENEVE, priority 2014, published 2017).

Experiments:
[1] = target: T1, FoxO1 (Mus musculus, UniProt Q9R1E0); assay: Transient FoxO1 inhibition in β-cell-ablated (and non-ablated control) adult Somatostatin-Cre; R26-YFP; RIP-DTR mice: δ-cell conversion into insulin+ cells
[2] = target: T1, FoxO1; design: endogenous in cells; host or cells: Somatostatin-Cre; R26-YFP; RIP-DTR mice (pancreatic islets, δ-cells), in vivo; conditions: oral administration, diabetic db/db mice; cited from earlier work
[3] = test system: β-cells; format: in vivo, mice; conditions: 2 weeks following DT administration; ablation at 2 weeks of age
[4] = test system: α-cells; assay: α-cell lineage tracing after β-cell ablation in Glucagon-rtTA; TetO-Cre; R26-YFP; RIP-DTR pups; format: in vivo, mice; conditions: DT at 2 weeks of age
[5] = administered immediately after DT ablation, analysed 1mpa, adult mice

T1 sequence (Q9R1E0 whole entry): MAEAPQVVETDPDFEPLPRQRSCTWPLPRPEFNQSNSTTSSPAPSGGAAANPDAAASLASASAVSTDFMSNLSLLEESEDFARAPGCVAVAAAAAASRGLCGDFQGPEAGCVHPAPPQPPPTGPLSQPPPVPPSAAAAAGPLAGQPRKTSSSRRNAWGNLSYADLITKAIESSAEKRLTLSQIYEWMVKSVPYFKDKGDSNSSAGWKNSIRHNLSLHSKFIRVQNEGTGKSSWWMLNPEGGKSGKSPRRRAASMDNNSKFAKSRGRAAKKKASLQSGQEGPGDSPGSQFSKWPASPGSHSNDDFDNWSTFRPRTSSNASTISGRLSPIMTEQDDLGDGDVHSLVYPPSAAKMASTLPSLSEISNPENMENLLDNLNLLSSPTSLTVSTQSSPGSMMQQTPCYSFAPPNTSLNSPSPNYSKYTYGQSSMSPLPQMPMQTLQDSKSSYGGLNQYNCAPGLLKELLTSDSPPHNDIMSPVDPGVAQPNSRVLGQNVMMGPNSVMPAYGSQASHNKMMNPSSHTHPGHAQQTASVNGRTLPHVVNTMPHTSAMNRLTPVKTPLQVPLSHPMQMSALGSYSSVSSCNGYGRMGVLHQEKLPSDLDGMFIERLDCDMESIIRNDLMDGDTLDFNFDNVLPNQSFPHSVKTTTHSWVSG

| insulin+ cells more abundant ([1]; AS1842856 given for 1 week immediately after DT ablation, analysed 1 month post ablation (1mpa), adult mice, 30 mg/kg i.p. daily) | fraction of YFP+ cells that expressed insulin only [1, 5] | insulin+ cells that were YFP+, i.e. dedifferentiated δ-cells [1, 5] | δ-cell de-differentiation upon transient FoxO1 inhibition ([1]; adult mice, AS1842856 for 1 week) | effect on insulin expression induction ([1]; non-ablated control mice) | Compound | fasting plasma glucose level [2] | β-cells lost [3] | YFP+/insulin+ (% cells; 1.5 mpa) [4] |
| --- | --- | --- | --- | --- | --- | --- | --- | --- |
| 11 fold | one-fourth | 93% | de-differentiate | minimal effect | CCn1cc(C(=O)O)c(=O)c2c(N)c(F)c(NC3CCCCC3)cc21 [AS1842856, 5-amino-7-(cyclohexylamino)-1-ethyl-6-fluoro-4-oxo-1,4-dihydroquinoline-3-carboxylic acid] | drastic decrease |  |  |
|  |  |  |  |  | Diphtheria toxin [DT] |  | 99% | 0.23% |
